The NIST ThermoML archive (doi:10.1016/j.jct.2016.01.006)
“And” between values parts separate entries of the source, which are not always exact repeats. Equal entries are not always repeated.

Details: Crystal, Calculated from knudsen effusion weight loss

CCOC(=O)c1cc2ccccc2[nH]1 [ethyl 1H-indole-2-carboxylate]
Details | vapor or sublimation pressure
326.18 K | 7.9e-05 kPa and 7.4e-05 kPa
328.21 K | 0.000101 kPa and 9.8e-05 kPa and 9.1e-05 kPa
330.12 K | 0.000123 kPa and 0.000122 kPa and 0.000126 kPa
332.18 K | 0.000155 kPa and 0.000154 kPa and 0.000157 kPa
334.22 K | 0.000202 kPa and 0.000196 kPa and 0.000203 kPa
336.12 K | 0.000256 kPa and 0.000249 kPa and 0.000248 kPa
338.18 K | 0.000312 kPa and 0.000322 kPa
340.21 K | 0.000399 kPa and 0.000394 kPa and 0.00041 kPa
342.12 K | 0.000501 kPa and 0.000503 kPa and 0.000504 kPa
344.16 K | 0.000627 kPa and 0.000614 kPa and 0.000659 kPa
346.18 K | 0.000808 kPa and 0.000835 kPa and 0.000768 kPa
348.11 K | 0.000988 kPa and 0.000995 kPa and 0.000981 kPa

COC(=O)c1c[nH]c2ccccc12 [methyl 1H-indole-3-carboxylate]
Details | vapor or sublimation pressure
353.17 K | 0.000108 kPa and 9.8e-05 kPa and 9.7e-05 kPa
355.12 K | 0.00013 kPa and 0.000127 kPa and 0.000122 kPa
357.1 K | 0.000154 kPa and 0.000153 kPa and 0.000148 kPa
359.16 K | 0.000179 kPa and 0.000181 kPa and 0.000189 kPa
361.11 K | 0.000232 kPa and 0.000226 kPa and 0.000234 kPa
363.1 K | 0.000283 kPa and 0.000285 kPa and 0.000284 kPa
365.16 K | 0.000351 kPa and 0.000347 kPa and 0.000371 kPa
367.12 K | 0.000439 kPa and 0.000427 kPa and 0.000452 kPa
369.1 K | 0.000528 kPa and 0.000531 kPa and 0.000514 kPa
371.16 K | 0.000637 kPa and 0.000644 kPa and 0.000707 kPa
373.09 K | 0.000799 kPa and 0.000822 kPa and 0.000792 kPa
375.09 K | 0.00096 kPa and 0.000992 kPa and 0.000977 kPa
